Measurements reported in patent publication US20060063143A1, “Immortalized hypothalamic neuronal cell lines” (priority 2002, published 2006).

Tests used:
Type in all cases: cell-based, mouse
NPY-17 (N-38) cells = assay: Calcium imaging (Fura2): intracellular calcium response to depolarization by KCl; conditions: KCl 60 mM, NPY-17 cells
Description: FIG. 15 illustrates the neurosecretory response of NPY-17 (N 38) cells. The effect of the addition of KCl (60 mM) on intracellular calcium levels ([Ca2+]i) for the cells pictured is shown. Images of cells shown in the two panels on the right were obtained as per Example 5. Shown is a representative experiment from 6 experiments, n=116 cells in total (FIG. 15, left panel);
Since many of the peptides and enzyme present in the individual cell lines are secretory products, one representative cell line, N-38 (Also known as NPY-17), was studied for its response to depolarization by addition of 60 mM KCl. […] NPY-17 neurons were plated in 60 mm plates. Fura-2/AM loaded GT1-7 neurons were continuously monitored by 340/380 ratiometric digital imaging pre (top right panel) and post (lower right panel) stimulation. […]
Ca2+ imaging experiments were performed with Fura2 (Molecular Probes) using an Olympus IX70 inverted epifluorescence microscope, an Ultrapix camera with an EEV CCD37-10-1-019 chip, a monochromator, and a PC computer with Merlin imaging software (Life Science Resources) using standard Fura2 optics and imaging techniques. […] Intracellular free Ca2+ ([Ca2+]i) concentrations calculated using the Grynkiewicz equation, [Ca2+]i=Kd×□×(R−Rmin)/(Rmax−R) (52).

N38 hypothalmic cells = assay: Microarray (Affymetrix oligonucleotide arrays) of TCAP-1 treated cells, genes regulated at 16 hours
Description: RNAs isolated from treated and untreated cells were analyzed on oligonucleotide arrays representing 12,884 mouse genes (Affymetrix, http://www.affymetrix.com). Standard filtering (p<0.005) and hierarchical clustering algorithm (average linage method: GeneSpring software—Silicon Genetics) identified significant changes in the expression of 4, 841/12,885 genes with 166 genes showing 1.5 fold down-regulation and 35 genes up-regulation in the TCAP-1-treated cells compared to the untreated cells. […] A G-protein coupled receptor-related signal transduction pathway is indicated by the regulation of genes, CREM, AKAP8, AKAP95 and PDE6A. […] The upregulation in inducible nitric oxide (INOS), a intracellular voltage-gated chloride channel (CLCN3) and the serotonin transporter (SLC6A4) may reflect the down stream actions of cAMP-mediated signal cascade and indicates the potential for TCAP to be involved in neuronal signaling systems. A role in interneuron communication by TCAP is also indicated by the modulation of genes associated with the regulation of vesicle trafficking. Thus, the TCAP responsive cell lines can be used to screen for modulators of neuronal function that affect growth, differentiation and communication.
The change in expression levels is indicated relative to the untreated control cell for the same time period of 16 hours. Values>1.5 fold or <0.70 fold were considered significant.

NPY-17 cells = assay: Leptin responsiveness: proteomic (mass spectrometry) analysis of nuclear extracts; conditions: 10^-7 M leptin, 20 hours, NPY-17 nuclear extracts, preliminary, +/- protein status
Description: The NPY-17 cells also express leptin receptors and have been studied for leptin responsiveness using both gene array analysis and proteomic analysis. NPY-17 cells were treated with 10^-7 M leptin (recombinant mouse, Bachem Scientific) for 20 hours. Cells were washed with PBS and harvested through centrifugation. Nuclear extracts were prepared and exposed to mass spectrometry analysis. […] The analysis is not considered quantitative, but initially represents a +/− protein status (i.e. the protein is either present or absent in the control or leptin-treated sample).

[1] = 1 nM TCAP-1, N38 cells, 16 hours post-treatment
[2] = 1 nM TCAP-1, N38 cells, treated vs untreated

**Q.** What does the source list for [Cl-].[K+] [KCl]?
**A.** calcium mobilization (NPY-17 (N-38) cells): significant increase; [Ca2+]i peak value (NPY-17 (N-38) cells; representative graph): ~450 nM

**Q.** Which results are given for “TCAP-1: teneurin C-terminal-associated peptide 1, SEQ ID NO 5 plus amidation signal GRR at C-terminus (QQLLGTGRVQGYDGYFVLSVEQYLELSDSANNIHFMRQSEI; C-terminal GRR amidation signal; Mouse TCAP1)”?
**A.** Fold change PTK7 (Receptor protein tyrosine kinase) (N38 hypothalmic cells; 1 nM TCAP-1, 16 hours, relative to untreated control, cluster Growth/Differentiation, probe 92325): 1.53 fold; Fold change GDAP10 (Ganglioside induced diff. protein 10) (N38 hypothalmic cells; 1 nM TCAP-1, 16 hours, relative to untreated control, cluster Growth/Differentiation, probe 94192): 1.62 fold; Fold change MMP10 (Matrix metalloproteinase 10) (N38 hypothalmic cells; 1 nM TCAP-1, 16 hours, relative to untreated control, cluster Growth/Differentiation, probe 94724): 0.59 fold; Fold change DLP1/2 (DAB2 interacting protein) (N38 hypothalmic cells; 1 nM TCAP-1, 16 hours, relative to untreated control, cluster Growth/Differentiation, probe 97353): 0.68 fold; Fold change P204 (Interferon activatable protein) (N38 hypothalmic cells; 1 nM TCAP-1, 16 hours, relative to untreated control, cluster Growth/Differentiation, probe 98466): 1.85 fold; Fold change GAS5 (Growth arrest specific transcript) (N38 hypothalmic cells; 1 nM TCAP-1, 16 hours, relative to untreated control, cluster Growth/Differentiation, probe 98530): 0.46 fold; Fold change INI1B (Integrase interacting protein 1B) (N38 hypothalmic cells; 1 nM TCAP-1, 16 hours, relative to untreated control, cluster Growth/Differentiation, probe 99924): 0.48 fold; Fold change MMP1 (Matrix metalloproteinase 1) (N38 hypothalmic cells; 1 nM TCAP-1, 16 hours, relative to untreated control, cluster Growth/Differentiation, probe 100484): 0.55 fold; Fold change MOP3 (Circadian rhythm regulator) (N38 hypothalmic cells; 1 nM TCAP-1, 16 hours, relative to untreated control, cluster Growth/Differentiation, probe 102382): 1.57 fold; Fold change CRD-BP (CRD-binding protein) (N38 hypothalmic cells; 1 nM TCAP-1, 16 hours, relative to untreated control, cluster Growth/Differentiation, probe 102627): 0.59 fold; Fold change CD95 (Fas antigen) (N38 hypothalmic cells; 1 nM TCAP-1, 16 hours, relative to untreated control, cluster Growth/Differentiation, probe 102921): 0.61 fold; Fold change GBP3 (Guanylate binding protein) (N38 hypothalmic cells; 1 nM TCAP-1, 16 hours, relative to untreated control, cluster Growth/Differentiation, probe 103202): 0.63 fold; Fold change CAI1 (Casein kinase II) (N38 hypothalmic cells; 1 nM TCAP-1, 16 hours, relative to untreated control, cluster Growth/Differentiation, probe 103441): 0.61 fold; Fold change SSG1 (Steroid sensitive gene 1) (N38 hypothalmic cells; 1 nM TCAP-1, 16 hours, relative to untreated control, cluster Growth/Differentiation, probe 160298): 0.62 fold; Fold change SDPR (Serum deprivation response protein) (N38 hypothalmic cells; 1 nM TCAP-1, 16 hours, relative to untreated control, cluster Growth/Differentiation, probe 160373): 0.57 fold; Fold change ST7 (Suppressor of tumourigenicity) (N38 hypothalmic cells; 1 nM TCAP-1, 16 hours, relative to untreated control, cluster Growth/Differentiation, probe 160591): 1.97 fold; Fold change PPAN (Peter Pan homologue) (N38 hypothalmic cells; 1 nM TCAP-1, 16 hours, relative to untreated control, cluster Growth/Differentiation, probe 160802): 0.62 fold; Fold change P202 (202 interferon activatable protein) (N38 hypothalmic cells; 1 nM TCAP-1, 16 hours, relative to untreated control, cluster Growth/Differentiation, probe 161173): 0.61 fold; Fold change MKI67 (Cell cycle protein regulator) (N38 hypothalmic cells; 1 nM TCAP-1, 16 hours, relative to untreated control, cluster Growth/Differentiation, probe 161931): 1.70 fold; Fold change CLM2-B (Cytohesin-2) (N38 hypothalmic cells; 1 nM TCAP-1, 16 hours, relative to untreated control, cluster Processing, probe 93492): 0.63 fold; Fold change ARF1 (ADP ribosylation factor 1) (N38 hypothalmic cells; 1 nM TCAP-1, 16 hours, relative to untreated control, cluster Processing, probe 95156): 0.63 fold; Fold change YIPID (Rab-mediated membrane transport) (N38 hypothalmic cells; 1 nM TCAP-1, 16 hours, relative to untreated control, cluster Processing, probe 99675): 1.88 fold; Fold change GP25L2 (gp25L brings cargo forward from ER) (N38 hypothalmic cells; 1 nM TCAP-1, 16 hours, relative to untreated control, cluster Processing, probe 100074): 1.53 fold; Fold change AP4S1 (Adaptor related protein complex) (N38 hypothalmic cells; 1 nM TCAP-1, 16 hours, relative to untreated control, cluster Processing, probe 104561): 1.52 fold; Fold change RAB10 (Ras oncogene homologue) (N38 hypothalmic cells; 1 nM TCAP-1, 16 hours, relative to untreated control, cluster Processing, probe 160149): 1.62 fold; Fold change CAMIII (Calmodulin III) (N38 hypothalmic cells; 1 nM TCAP-1, 16 hours, relative to untreated control, cluster Signalling/Communication, probe 92631): 0.53 fold; Fold change FNBX (Ferredoxin-NADP reductase) (N38 hypothalmic cells; 1 nM TCAP-1, 16 hours, relative to untreated control, cluster Signalling/Communication, probe 92754): 1.61 fold; Fold change ALK3 (Bone morphogenic protein receptor) (N38 hypothalmic cells; 1 nM TCAP-1, 16 hours, relative to untreated control, cluster Signalling/Communication, probe 92767): 0.60 fold; Fold change BMP4 (Bone morphogenic protein-4) (N38 hypothalmic cells; 1 nM TCAP-1, 16 hours, relative to untreated control, cluster Signalling/Communication, probe 93456): 0.52 fold; Fold change IL1R (Interleukin 1 receptor) (N38 hypothalmic cells; 1 nM TCAP-1, 16 hours, relative to untreated control, cluster Signalling/Communication, probe 93914): 0.60 fold; Fold change CLCN3 (Chloride channel protein 3) (N38 hypothalmic cells; 1 nM TCAP-1, 16 hours, relative to untreated control, cluster Signalling/Communication, probe 94465): 1.66 fold; Fold change AKAP95 (A kinase anchor protein 95) (N38 hypothalmic cells; 1 nM TCAP-1, 16 hours, relative to untreated control, cluster Signalling/Communication, probe 95001): 0.60 fold; Fold change GR (Glucocorticoid receptor) (N38 hypothalmic cells; 1 nM TCAP-1, 16 hours, relative to untreated control, cluster Signalling/Communication, probe 98818): 0.66 fold; Fold change CREMβ1 (cAMP-responsive element modulator) (N38 hypothalmic cells; 1 nM TCAP-1, 16 hours, relative to untreated control, cluster Signalling/Communication, probe 100533): 1.61 fold; Fold change PDE6A (cGMP Phosphodiesterase α) (N38 hypothalmic cells; 1 nM TCAP-1, 16 hours, relative to untreated control, cluster Signalling/Communication, probe 100696): 1.68 fold; Fold change ERK1 (Mitogen activated protein kinase) (N38 hypothalmic cells; 1 nM TCAP-1, 16 hours, relative to untreated control, cluster Signalling/Communication, probe 101834): 0.64 fold; Fold change BARK1 (β adrenorgic receptor kinase 1) (N38 hypothalmic cells; 1 nM TCAP-1, 16 hours, relative to untreated control, cluster Signalling/Communication, probe 104270): 0.61 fold; Fold change INOS (Inducible nitric oxide synthetase) (N38 hypothalmic cells; 1 nM TCAP-1, 16 hours, relative to untreated control, cluster Signalling/Communication, probe 104420): 1.50 fold; Fold change PCDHγ (protocadherin γ) (N38 hypothalmic cells; 1 nM TCAP-1, 16 hours, relative to untreated control, cluster Signalling/Communication, probe 160976): 0.42 fold; Fold change TTF-1IP (TTF-1 interacting peptide) (N38 hypothalmic cells; 1 nM TCAP-1, 16 hours, relative to untreated control, cluster Signalling/Communication, probe 161019): 0.50 fold; Fold change AKAP8 (A kinase anchor protein 8) (N38 hypothalmic cells; 1 nM TCAP-1, 16 hours, relative to untreated control, cluster Signalling/Communication, probe 161088): 1.58 fold; Fold change SLC6A4 (Serotonin transporter) (N38 hypothalmic cells; 1 nM TCAP-1, 16 hours, relative to untreated control, cluster Signalling/Communication, probe 161695): 1.53 fold; AKAP8 gene expression (N38 hypothalmic cells; [1]): upregulation; AKAP95 gene expression (N38 hypothalmic cells; [1]): Downregulation; CD95 gene expression (N38 hypothalmic cells; [1]): significant decrease; EFK1 gene expression (N38 hypothalmic cells; [1]): down regulated; GAS5 gene expression (N38 hypothalmic cells; [1]): significant decrease; GDAP10 gene expression (N38 hypothalmic cells; [1]): upregulated; MK167 gene expression (N38 hypothalmic cells; [1]): upregulated; MOP3 gene expression (N38 hypothalmic cells; [1]): upregulated; RGL gene expression (N38 hypothalmic cells; [1]): down regulated; SDPR gene expression (N38 hypothalmic cells; [1]): significant decrease; inducible nitric oxide (INOS) gene expression (N38 hypothalmic cells; [1]): upregulation; intracellular voltage-gated chloride channel (CLCN3) gene expression (N38 hypothalmic cells; [1]): upregulation; serotonin transporter (SLC6A4) gene expression (N38 hypothalmic cells; [1]): upregulation; genes showing 1.5 fold down-regulation (N38 hypothalmic cells; [2]): 166; genes showing up-regulation (N38 hypothalmic cells; [2]): 35

B1: leptin: leptin (recombinant mouse, Bachem Scientific) (protein, UniProt P41160 22-167, looked up)
Leptin: VPIQKVQDDTKTLIKTIVTRINDISHTQSVSAKQRVTGLDFIPGLHPILSLSKMDQTLAVYQQVLTSLPSQNVLQIANDLENLRDLLHLLAFSKSCSLPQTSGLQKPESLDGVLEASLYSTEVVALSRLQGSLQDILQQLDVSPEC
**Q.** Which “proteins altered by leptin treatment” value (NPY-17 cells) does the source give for B1 here?
**A.** approximately 250
